Consider four compounds from patent publication US5164399A, “Rapamycin pyrazoles” (American Home Products Corporation, priority 1991, dated 1992).

One assay relates to pinch skin graft. Kind of assay: survival time of pinch skin graft. In kind it is in vivo, male BALB/c mice recipients (male DBA/2 donors). Particulars: intraperitoneally. Here is the method: (§1) Immunosuppressive activity was evaluated in an in vitro standard pharmacological test procedure to measure lymphocyte proliferation (LAF) and in two in vivo standard pharmacological test procedures. The first in vivo procedure was a popliteal lymph node (PLN) test procedure which measured the effect of compounds of this invention on a mixed lymphocyte reaction and the second in vivo procedure evaluated the survival time of a pinch skin graft.
The second in vivo test procedure is designed to determine the survival time of pinch skin graft from male DBA/2 donors transplanted to male BALB/c recipients. The method is adapted from Billingham R. E. and Medawar P. B., J. Exp. Biol. 28: 385-402, (1951). Briefly, a pinch skin graft from the donor is grafted on the dorsum of the recipient as a homograft, and an autograft is used as control in the same region. […] Untreated recipients serve as rejection control. The graft is monitored daily and observations are recorded until the graft becomes dry and forms a blackened scab. This is considered as the rejection day. The mean graft survival time (number of days±S.D.) of the drug treatment group is compared with the control group.

Assay [1] relates to cells from the thymus of normal BALB/c mice (lymphocyte proliferation). Kind of assay: comitogen-induced thymocyte proliferation procedure (LAF). In kind it is cell-based. Particulars: Mus musculus; for inhibition at 0.1 µM: read-out: LAF percent inhibition at 100 nM. As for the experimental part:
as §1
Briefly, cells from the thymus of normal BALB/c mice are cultured for 72 hours with PHA and IL-1 and pulsed with tritiated thymidine during the last six hours. […] Cells are harvested and incorporated; radioactivity is determined. Inhibition of lymphoproliferation is assessed in percent change in counts per minute from non-drug treated controls. The results are expressed as the IC50, expressed in nM, or as the percent inhibition at 100 nM.

The test system of assay [2] is popliteal lymph nodes (mixed lymphocyte reaction). The assay can be described thus: in vivo popliteal lymph node (PLN) test procedure (mixed lymphocyte reaction). Set-up: species or system C3H mice (BALB/c donors). Here is the method:
as §1
A mixed lymphocyte reaction (MLR) occurs when lymphoid cells from genetically distinct animals are combined in tissue culture. Each stimulates the other to undergo blast transformation which results in increased DNA synthesis that can be quantified by the incorporation of tritiated thymidine. Since stimulating a MLR is a function of disparity at Major Histocompatibility antigens, an in vivo popliteal lymph node (PLN) test procedure closely correlates to host vs. graft disease. Briefly, irradiated spleen cells from BALB/c donors are injected into the right hind foot pad of recipient C3H mice. […] On Day 3 and Day 4, tritiated thymidine is given i.p., b.i.d. On Day 5, the hind popliteal lymph nodes are removed and dissolved, and radioactivity counted. The corresponding left PLN serves as the control for the PLN from the injected hind foot. Percent suppression is calculated using the non-drug treated animals as allogenic control. […]

The test system of assay [3] is Candida albicans. The following applies: cited from earlier work.
The subject of the next assay is organ grafts. The following applies: histoincompatible rodents; cited from earlier work.
In assay [4] the test system is Candida albicans. The following applies: cited from earlier work. The source holds these as a separate data set.
[5] abbreviates: thymocytes, PHA and IL-1, 72 hours, tritiated thymidine, read-out: LAF IC50.

Read-outs that look alike come from different tables or passages of the source.

On to `CO[C@@H]1C(=O)/C(C)=C/[C@@H](C)C(=O)C[C@@H]([C@H](C)C[C@@H]2CC[C@@H](O)[C@H](OC)C2)OC(=O)[C@@H]2CCCCN2C(=O)C(=O)[C@]2(O)O[C@@H](CC[C@H]2C)C[C@H](OC)/C(C)=C/C=C/C=C/[C@@H](C)C[C@@H](C)C1=O` [Example 1, 31-Deoxy-31-oxorapamycin], for which the “Skin Graft (days ± SD), mean graft survival time” value in the assay on pinch skin graft came out at 9.16 ± 0.47 days. The inhibition at 0.1 µM in assay [1] was 41%. The IC50 in assay [1] (setting [5]) is 84.9 nM.

For `CO[C@@H]1C(=O)/C(C)=C/[C@@H](C)C(=O)C[C@@H]([C@H](C)C[C@@H]2CCC(=O)[C@H](OC)C2)OC(=O)[C@@H]2CCCCN2C(=O)C(=O)[C@]2(O)O[C@@H](CC[C@H]2C)C[C@H](OC)/C(C)=C/C=C/C=C/[C@@H](C)C[C@@H](C)C1=O` [Example 2, 31,42-Dideoxy-31,42-dioxorapamycin], in assay [1], the inhibition at 0.1 µM turned out to be 4%.

Consider `COc1c2n[nH]c1[C@H](C)C[C@H](C)/C=C/C=C/C=C(\C)[C@@H](OC)C[C@@H]1CC[C@@H](C)[C@@](O)(O1)C(=O)C(=O)N1CCCC[C@H]1C(=O)O[C@H]([C@H](C)C[C@@H]1CC[C@@H](O)[C@H](OC)C1)CC(=O)[C@H](C)/C=C/2C` [Example 3, 33-Deoxo-31-deoxy-31,33-(1-hydrazinyl-2-ylidene)rapamycin], for which the “PLN (ratio)” value in assay [2] (i.p. daily Day 0 to Day 4, ratio as defined) stood at 0.52. In addition, the IC50 in assay [1] (setting [5]) was 205 nM.

On to `CO[C@H]1C[C@@H]2CC[C@@H](C)[C@@](O)(O2)C(=O)C(=O)N2CCCC[C@H]2C(=O)O[C@H]([C@H](C)C[C@@H]2CC[C@@H](O)[C@H](OC)C2)CC(=O)[C@H](C)/C=C(\C)[C@@H](O)[C@@H](OC)C(=O)[C@H](C)C[C@H](C)/C=C/C=C/C=C/1C` [Rapamycin, rapamycin], for which the “antifungal activity in vitro” value in the assay on Candida albicans [3] was “antifungal activity”. The compound further showed a PLN suppression in assay [2] (6 mg/kg, p.o.) of 86%. In the assay on pinch skin graft, the “Skin Graft (days ± SD), mean graft survival time” value was determined as 11.66 ± 0.47 days. The IC50 in assay [1] (read-out: LAF IC50 of rapamycin as a control for Example 1) is 0.2 nM. Moreover, in assay [1], the inhibition at 0.1 µM was 94%. For the same compound, in the assay with organ grafts, the “prolongation of survival time of organ grafts” value is “prolong survival time”. The “antifungal activity in vivo” value in the assay on Candida albicans [4] is “antifungal activity”.

A word on the inhibition: it is how much of the control response was suppressed. A word on the IC50: it is the concentration at which inhibition is half-maximal.
